# Data: patent publication US6399607B1, “Aminomethylene amide analogs of pyrazinamide with intracellular antimycobacterial activity against pyrazinamide-resistant mycobacteria combined with a rifamycin” (priority 1999, dated 2002)
# Legend:
# M. tuberculosis [1] = experiment: MIC in modified 7H10 broth against M. tuberculosis (Table 3); format: cell-based, Mycobacterium tuberculosis; parameters: MIC, M. tuberculosis ATCC 35801 / MIC, M. tuberculosis ATCC 27294: unit not given here; conditions: for MIC, M. tuberculosis ATCC 27294: ATCC 27294 (H37RV, PZA susceptible), pH 5.8; for MIC, M. tuberculosis ATCC 35801: ATCC 35801, pH 5.8
# M. kansasii = experiment: MIC in modified 7H10 broth against M. kansasii (Tables 3, 4); format: cell-based, Mycobacterium kansasii; parameters: unit not given beside the values; conditions: clinical isolate S
# M. tuberculosis [2] = experiment: microbe, parasite or virus in culture; format: cell-based, Mycobacterium tuberculosis; parameters: MIC, pansusceptible strain, pH 5.5 / MIC, Pansusceptible strain, pH 6.0 / MIC, Pansusceptible strain, pH 6.8: unit not given here; conditions: for MIC, Pansusceptible strain, pH 6.0 / MIC, Pansusceptible strain, pH 6.8: 7H12 BACTEC broth, three pansusceptible strains; for MIC: Mycobacterium tuberculosis, same at pH 6.0 and 6.8
# M. tuberculosis [3] = experiment: Murine model of tuberculosis, combination with KRM-1648 (RLZ) (FIG. 2); format: in vivo; conditions: mice, in combination with KRM-1648 (Rifalazil, RLZ)
# M. avium complex = experiment: MIC in modified 7H10 broth against M. avium complex (Tables 3, 4); format: cell-based, Mycobacterium avium; parameters: unit not given here
# Mycobacterium avium = conditions: Heifets et al, Am. Rev. Resp. Dis. 134: 1287-1288 (1986); cited from earlier work
# [4] = cited from earlier work
# [5] = tested on: Mtb organisms which have been phagocytized; conditions: reduced efficacy after 4 to 7 days; cited from earlier work
# [6] = Table 3, modified 7H10 broth, pH 5.8
# [7] = Table 3, ATCC 49601 (serotype 1), modified 7H10 broth, pH 5.8
# [8] = Table 3, strain 101 (serotype 1), modified 7H10 broth, pH 5.8
SMILES,"MIC, M. tuberculosis ATCC 27294 (M. tuberculosis [1])","MIC, M. tuberculosis ATCC 35801 (M. tuberculosis [1])","MIC, M. kansasii S (M. kansasii; [6])","MIC, M. kansasii S (M. kansasii; Table 4)","MIC, M. avium complex ATCC 49601 (M. avium complex; [7])","MIC, M. avium complex 101 (M. avium complex; [8])","MIC, M. avium complex ATCC 49601 (M. avium complex; Table 4, ATCC 49601)","MIC, M. avium complex 101 (M. avium complex; Table 4, strain 101)",other results
"O=C(NCN1CCCC1)c1cnccn1 [Compound 1, pyrazine-2-carboxylic acid (pyrrolidin-1-ylmethyl)-amide]",16,8,128,128,>128,>128,>128,>128,"MIC, Pansusceptible strain, pH 6.0 (M. tuberculosis [2]): 100; MIC, Pansusceptible strain, pH 6.8 (M. tuberculosis [2]): 100; MIC, pansusceptible strain, pH 5.5 (M. tuberculosis [2]; pansusceptible strain, pH 5.5): 50; reduction of CFUs / infection in murine model of tuberculosis (M. tuberculosis [3]): superior or equivalent to PZA in reducing CFUs"
"CCN(CC)CNC(=O)c1cnccn1 [Compound 2, pyrazine-2-carboxylic acid diethylaminomethyl-amide]",16,2,128,,128,128,,,"MIC, Pansusceptible strain, pH 6.0 (M. tuberculosis [2]): 100; MIC, Pansusceptible strain, pH 6.8 (M. tuberculosis [2]): 100; MIC (M. tuberculosis [2]; 7H12 broth): 100 µg/mL; reduction of CFUs / infection in murine model of tuberculosis (M. tuberculosis [3]): superior or equivalent to PZA in reducing CFUs"
"O=C(NCN1CCOCC1)c1cnccn1 [Compound 4, (morpholin-4-ylmethyl)-amide]",32,16,128,128,>128,>128,>128,128,
"NC(=O)c1cnc(Cl)cn1 [Compound 5-Chloro-PZA, 5-chloro-pyrazinamide, reference compound]",16,16,32,32,32,32,32,32,
CCCCN(CC)CNC(=O)c1cnccn1 [Compound 5],,,,>128,,,>128,128,
CCCCN(C)CNC(=O)c1cnccn1 [Compound 6],,,,128,,,>128,128,
"CN1CCN(CNC(=O)c2cnccn2)CC1 [Compound 7, (piperazin-1-ylmethyl)-amide]",,,,>128,,,>128,>128,
"CN(CNC(=O)c1cnccn1)Cc1ccccc1 [Compound 8, [(benzyl-methyl-amino)-methyl]-amide]",,,,128,,,128,128,
"CCCN(CCC)CNC(=O)c1cnccn1 [Compound 9, dipropylaminomethyl-amide]",,,,128,,,>128,128,
CCCCN(CCCC)CNC(=O)c1cnccn1 [Compound 10],,,,>128,,,>128,>128,
"CCN(CC)CNC(=O)c1cnc(N(CC)CC)cn1 [Compound 17, 5-diethylamino-pyrazinoic acid diethylaminomethyl-amide]",64,16,>128,,>128,(>128,,,
"O=C(NCN1CCOCC1)c1cnccn1 [MZA, morphazinamide]",,,,,,,,,MIC (M. tuberculosis [2]; 7H12 broth): 100 µg/mL
"NC(=O)c1cnccn1 [PZA, Pyrazinamide]",16,32,2048,2048,>2048,>2048,>2048,>2048,"difference in MICs under different pH conditions (M. tuberculosis [2]; 7H12 broth, pH 6.0 v. 6.8): dramatic difference; reduction of CFUs / infection in murine model of tuberculosis (M. tuberculosis [3]): effective in reducing infection; activity against Mycobacterium avium (Mycobacterium avium): Neither is it active; pKa [4]: 0.5; activity in macrophages [5]: either weakly or clearly bacteriostatic in macrophages"
